Tested on: CIITA
Test: NGS editing and frameshift edit of CIITA by dgRNA in HEK293 cells expressing Cas9
Type: cell-based, human
Settings: HEK293 cells stably expressing Cas9, dgRNA to CIITA; for Avg. % Edit: N = 3; for Avg. % FS: frameshift edit
Description: Editing of CIITA with dgRNAs targeted to the CIITA gene were assayed in HEK293 cells engineered to express Cas9, as described above in Example 1.

CR002973 (guide CAUCGCUGUUAAGAAGCUCC; targeting domain within dual guide RNA, chemistry not given here, further chemistry not given here; listed as Homo sapiens)
Avg. % Edit: 30.60% | Avg. % FS: 23.55%

CR002974 (guide AGAAGUGGUAGAGGCACAGG; targeting domain within dual guide RNA, chemistry not given here, further chemistry not given here; listed as Homo sapiens)
Avg. % Edit: 8.99% | Avg. % FS: 6.92%

CR002975 (guide UAGAAGUGGUAGAGGCACAG; targeting domain within dual guide RNA, chemistry not given here, further chemistry not given here; listed as Homo sapiens)
Avg. % Edit: 19.31% | Avg. % FS: 15.82%

CR002977 (guide CAUAGAAGUGGUAGAGGCAC; targeting domain within dual guide RNA, chemistry not given here, further chemistry not given here; listed as Homo sapiens)
Avg. % Edit: 19.11% | Avg. % FS: 12.99%

CR002979 (guide CUACCACUUCUAUGACCAGA; targeting domain within dual guide RNA, chemistry not given here, further chemistry not given here; listed as Homo sapiens)
Avg. % Edit: 28.91% | Avg. % FS: 23.07%

CR002981 (guide CUUCUAUGACCAGAUGGACC; targeting domain within dual guide RNA, chemistry not given here, further chemistry not given here; listed as Homo sapiens)
Avg. % Edit: 36.28% | Avg. % FS: 29.98%

CR002982 (guide UAUGACCAGAUGGACCUGGC; targeting domain within dual guide RNA, chemistry not given here, further chemistry not given here; listed as Homo sapiens)
Avg. % Edit: 10.45% | Avg. % FS: 9.05%

CR002983 (guide CUUCUCCAGCCAGGUCCAUC; targeting domain within dual guide RNA, chemistry not given here, further chemistry not given here; listed as Homo sapiens)
Avg. % Edit: 35.90% | Avg. % FS: 33.83%

CR002985 (guide CAGUUGAUGGUGUCUGUGUC; targeting domain within dual guide RNA, chemistry not given here, further chemistry not given here; listed as Homo sapiens)
Avg. % Edit: 32.99% | Avg. % FS: 29.52%

CR002986 (guide GCAGUUGAUGGUGUCUGUGU; targeting domain within dual guide RNA, chemistry not given here, further chemistry not given here; listed as Homo sapiens)
Avg. % Edit: 1.77% | Avg. % FS: 1.48%

CR002989 (guide CACACAACAGCCUGCUGAAC; targeting domain within dual guide RNA, chemistry not given here, further chemistry not given here; listed as Homo sapiens)
Avg. % Edit: 27.38% | Avg. % FS: 8.45%

CR002996 (guide AGGUGCUUCCUCACCGAUAU; targeting domain within dual guide RNA, chemistry not given here, further chemistry not given here; listed as Homo sapiens)
Avg. % Edit: 23.91% | Avg. % FS: 17.83%

CR002998 (guide GGGAGUCCUGGAAGACAUAC; targeting domain within dual guide RNA, chemistry not given here, further chemistry not given here; listed as Homo sapiens)
Avg. % Edit: 4.95% | Avg. % FS: 4.84%

CR002999 (guide UGUCUUCCAGGACUCCCAGC; targeting domain within dual guide RNA, chemistry not given here, further chemistry not given here; listed as Homo sapiens)
Avg. % Edit: 23.50% | Avg. % FS: 18.58%

CR003000 (guide CUUCCAGGACUCCCAGCUGG; targeting domain within dual guide RNA, chemistry not given here, further chemistry not given here; listed as Homo sapiens)
Avg. % Edit: 12.83% | Avg. % FS: 10.53%

CR003002 (guide GGCCCUCCAGCUGGGAGUCC; targeting domain within dual guide RNA, chemistry not given here, further chemistry not given here; listed as Homo sapiens)
Avg. % Edit: 11.85% | Avg. % FS: 9.78%

CR003003 (guide CUUGCUCAGGCCCUCCAGCU; targeting domain within dual guide RNA, chemistry not given here, further chemistry not given here; listed as Homo sapiens)
Avg. % Edit: 35.07% | Avg. % FS: 27.91%

CR003004 (guide CCUUGCUCAGGCCCUCCAGC; targeting domain within dual guide RNA, chemistry not given here, further chemistry not given here; listed as Homo sapiens)
Avg. % Edit: 19.43% | Avg. % FS: 15.63%

CR003005 (guide CCAGCUGGAGGGCCUGAGCA; targeting domain within dual guide RNA, chemistry not given here, further chemistry not given here; listed as Homo sapiens)
Avg. % Edit: 21.11% | Avg. % FS: 18.08%

CR003006 (guide UACUGAAAAUGUCCUUGCUC; targeting domain within dual guide RNA, chemistry not given here, further chemistry not given here; listed as Homo sapiens)
Avg. % Edit: 19.46% | Avg. % FS: 14.66%

CR003008 (guide CUCUCACCGAUCACUUCAUC; targeting domain within dual guide RNA, chemistry not given here, further chemistry not given here; listed as Homo sapiens)
Avg. % Edit: 15.30% | Avg. % FS: 10.91%

CR003010 (guide AUGGAGAUGCCAGCAGAAGU; targeting domain within dual guide RNA, chemistry not given here, further chemistry not given here; listed as Homo sapiens)
Avg. % Edit: 25.45% | Avg. % FS: 14.37%

CR003012 (guide CUUUUCUGCCCAACUUCUGC; targeting domain within dual guide RNA, chemistry not given here, further chemistry not given here; listed as Homo sapiens)
Avg. % Edit: 10.67% | Avg. % FS: 7.51%

CR003014 (guide GGUCUGCCGGAAGCUCCUCU; targeting domain within dual guide RNA, chemistry not given here, further chemistry not given here; listed as Homo sapiens)
Avg. % Edit: 32.51% | Avg. % FS: 26.93%

CR003015 (guide AGGUCUGCCGGAAGCUCCUC; targeting domain within dual guide RNA, chemistry not given here, further chemistry not given here; listed as Homo sapiens)
Avg. % Edit: 27.40% | Avg. % FS: 24.05%

CR003016 (guide UUCCGGCAGACCUGAAGCAC; targeting domain within dual guide RNA, chemistry not given here, further chemistry not given here; listed as Homo sapiens)
Avg. % Edit: 17.86% | Avg. % FS: 13.55%

CR003017 (guide UUCCAGUGCUUCAGGUCUGC; targeting domain within dual guide RNA, chemistry not given here, further chemistry not given here; listed as Homo sapiens)
Avg. % Edit: 21.90% | Avg. % FS: 15.22%

CR003018 (guide GAGCCCCCCACUGUGGUGAC; targeting domain within dual guide RNA, chemistry not given here, further chemistry not given here; listed as Homo sapiens)
Avg. % Edit: 27.72% | Avg. % FS: 26.54%

CR003019 (guide CUGCCAGUCACCACAGUGGG; targeting domain within dual guide RNA, chemistry not given here, further chemistry not given here; listed as Homo sapiens)
Avg. % Edit: 11.80% | Avg. % FS: 9.74%

CR003020 (guide ACUGCCAGUCACCACAGUGG; targeting domain within dual guide RNA, chemistry not given here, further chemistry not given here; listed as Homo sapiens)
Avg. % Edit: 23.67% | Avg. % FS: 16.44%

Source: US12037583B2, “Compositions and methods for immunooncology” (Novartis AG, priority 2015, dated 2024)
